Values of other authors in patent publication US20040131704A1, “A method of organic and all natural treatment, prevention and relief of diaper dermatitis and other related skin irritations” (priority 2003, published 2004).

How the values were obtained:
epithelial formations = settings: aqueous solution in strengths of 0.30 percent
[1] = test system: 18 strains of gram positive and gram-negative bacteria
[2] = topical application of Lavender oil
[3] = relative activity of triterpenoids

## NC(=O)NC1NC(=O)NC1=O (stereo not shown) [Allantoin]
Epithelial formations
  action in strengthening epithelial formations: powerful action

## C=CC(C)(O)CCC=C(C)C (stereo not shown) [Linalool]
[1]
  number of strains with antibacterial activity: 17 out of 18 strains
[2]
  time of peak in the blood: 19 min
  time to detection in the blood: five

## CC1(C)CC[C@]2(C)CC[C@]3(C)C(=CC[C@@H]4[C@@]5(C)CC[C@H](O)C(C)(C)[C@@H]5CC[C@]43C)[C@@H]2C1 [beta-amyrin]
[3]
  anti-inflammatory activity: less active than the free diol

## CC12CCC(CC1)C(C)(C)O2 [cineole]
[1]
  number of strains with antibacterial activity: 16 out of 18 strains

## CC1=CC[C@@]2(C)[C@H]([C@@H]1C)[C@H]1CC[C@@H]3[C@@]4(C)CC[C@H](O)C(C)(C)[C@@H]4CC[C@@]3(C)[C@]1(C)C[C@@H]2O [faradiol]
[3]
  anti-inflammatory activity: most active of the tested compounds and equals indomethacian in activity

## C=CC(C)(CCC=C(C)C)OC(C)=O (stereo not shown) [linalyl acetate]
[2]
  time of peak in the blood: 19 min
  time to detection in the blood: five

## C=C(C)[C@@H]1CC[C@]2(C)CC[C@]3(C)[C@H](CC[C@@H]4[C@@]5(C)CC[C@H](O)C(C)(C)[C@@H]5CC[C@]43C)[C@@H]12 [lupeol]
[3]
  anti-inflammatory activity: less active than the free diol

## CC1=CCC2(C)CCC3(C)C(CCC4C5(C)CCC(O)C(C)(C)C5CCC43C)C2C1C (stereo not shown) [psi-taraxzsterol]
[3]
  anti-inflammatory activity: less active than the free diol

## C=C1CC[C@]2(C)CC[C@]3(C)[C@H](CC[C@@H]4[C@@]5(C)CC[C@H](O)C(C)(C)[C@@H]5CC[C@]43C)[C@H]2[C@@H]1C [taraxasterol]
[3]
  anti-inflammatory activity: less active than the free diol

## faradoil monoester
[3]
  anti-inflammatory activity: most relevant principle for the activity of the drug
